The source made the active and inactive calls.
Key:
[1] = Trypanosoma cruzi growth suppression in host cells – NIH3T3 host cells, beta-gal luminescence, confirmation (AID 2044); type: functional, cell-based;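 also: intracellular parasites grown in NIH/3T3 mouse fibroblasts as host cells; luminescent beta-galactosidase reporter signal from transgenic T. cruzi replicating inside host cells; inhibitors lower the luminescence signal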
[2] = Luminescence-based dose response cell-based high throughput screening assay for cytotoxic compounds using the IEC-6 intestinal epithelial cell line. [Related pubchem assays: 1858 (Summary AID.), 1825 (Counterscreen.), 1907 (Confirmation screen.)]; type: functional
[3] = DRD fibroblast viability loss – cell-based, non-viral oncogenic, luminescence, dose response (AID 1934); type: functional; conditions: Homo sapiens
BJ [4] = assay: BJ-TERT-LT-ST fibroblast viability loss – cell-based, RAS-independent, luminescence, dose response (AID 1935); type: functional; conditions: Homo sapiens;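 also: BJ fibroblasts immortalized with TERT plus LT and ST oncogenes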
[5] = NIH3T3 cell viability loss – ATP luminescence, mouse fibroblasts, counter-screen, dose response (AID 2010); type: functional, cell-based;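 also: cells exposed to compound for about 90 hours before reading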
[6] = alpha-synuclein stem-loop luciferase translation blockers – H4 neuroglioma cells, luminescence, confirmation (AID 1988); type: functional, cell-based
BJ [7] = assay: BJ-TERT fibroblast viability loss – cell-based, RAS-independent, luminescence, dose response (AID 1933); type: functional; conditions: Homo sapiens
[8] = luciferase reporter signal suppression in cells – H4 neuroglioma cells, luminescence, dose response (AID 1990); type: functional, cell-based
BJ [9] = assay: cells; type: functional, cell-based; conditions: Homo sapiens
[10] = Luminescence Cell-Based Dose Response HTS to Identify Inhibitors of 5'UTR Stem-Loop Driven Prion Protein mRNA Translation in H4 Neuroglioblastoma Cells. [Related pubchem assays: 1827 (Project Summary), 1813 (Primary HTS)]; type: functional
[11] = Luminescence Cell-Based Dose Confirmation HTS to Identify Inhibitors of Polyadenylation.; type: functional
[12] = A549 cell cytotoxicity, dose response, cytotoxicity control, plate reader, cherry-pick, antagonist series (AID 743412); type: functional, cell-based
[13] = target: T1, Heat shock factor protein 1 (Mus musculus, UniProt P38532); assay: decrease of HSF1-responsive luciferase luminescence – cell-based, NIH3T3, dose retest, confirmation (AID 2382); type: functional;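 also: NIH3T3 fibroblasts with HSF1-driven luciferase reporter stressed by proteasome inhibitor MG132; luminescence from HSF1-driven luciferase expression after 8 hours of MG132 stress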
T1 sequence (P38532 whole entry): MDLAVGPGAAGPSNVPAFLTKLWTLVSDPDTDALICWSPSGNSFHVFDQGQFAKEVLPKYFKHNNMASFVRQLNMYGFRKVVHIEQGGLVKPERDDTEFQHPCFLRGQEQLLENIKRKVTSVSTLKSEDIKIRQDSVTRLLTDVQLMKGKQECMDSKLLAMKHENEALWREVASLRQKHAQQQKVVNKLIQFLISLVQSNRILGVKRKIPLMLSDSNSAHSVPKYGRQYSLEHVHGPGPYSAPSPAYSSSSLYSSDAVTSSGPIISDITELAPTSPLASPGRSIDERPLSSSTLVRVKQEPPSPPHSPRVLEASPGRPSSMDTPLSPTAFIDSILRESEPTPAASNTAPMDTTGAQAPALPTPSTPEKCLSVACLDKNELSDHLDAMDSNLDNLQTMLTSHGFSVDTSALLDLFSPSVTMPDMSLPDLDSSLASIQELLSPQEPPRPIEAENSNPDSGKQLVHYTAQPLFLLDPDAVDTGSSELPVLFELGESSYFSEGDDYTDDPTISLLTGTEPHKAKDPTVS

[14] = viability loss in HEK293 cells – cell-based, plate reader, cherry-picked samples, cytotoxicity control, dose response (AID 743446); type: functional
INS1 = assay: INS-1E survival protection against cytokine death – cell-based, luminescence, retest, dose response (AID 449756); type: functional; conditions: Rattus norvegicus;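 also: cell death triggered by IL-1 beta plus TNF-alpha plus IFN-gamma mixture; protective hits raise ATP signal compared with cytokine alone wells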
[15] = microbe, parasite or virus in culture; type: functional; conditions: Mycobacterium tuberculosis
[16] = Fluorescence-based cell-based high throughput dose response assay for inhibitors of the interaction of nucleotide-binding oligomerization domain containing 2 (NOD2) and the receptor-interacting serine-threonine kinase 2 (RIPK2).; type: functional; conditions: Homo sapiens
[17] = blockers of bursicon-stimulated LGR2 cAMP reporter – cell-based, HEK293, CRE-luciferase reporter, cherry pick, set 2, dose response (AID 743343); type: functional;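 also: transfected cells were stimulated with diluted bursicon conditioned medium after compound addition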
[18] = toxicity toward HepG2 liver cells – cell-based, plate reader, cherry-pick, antagonist series, cytotoxicity control, dose response (AID 743416); type: functional
Beta-galactosidase = Beta-galactosidase (Escherichia coli, UniProt Q8VNN2); assay: PubChem AID 485352; type: functional
Beta-galactosidase, sequence (Q8VNN2 whole entry): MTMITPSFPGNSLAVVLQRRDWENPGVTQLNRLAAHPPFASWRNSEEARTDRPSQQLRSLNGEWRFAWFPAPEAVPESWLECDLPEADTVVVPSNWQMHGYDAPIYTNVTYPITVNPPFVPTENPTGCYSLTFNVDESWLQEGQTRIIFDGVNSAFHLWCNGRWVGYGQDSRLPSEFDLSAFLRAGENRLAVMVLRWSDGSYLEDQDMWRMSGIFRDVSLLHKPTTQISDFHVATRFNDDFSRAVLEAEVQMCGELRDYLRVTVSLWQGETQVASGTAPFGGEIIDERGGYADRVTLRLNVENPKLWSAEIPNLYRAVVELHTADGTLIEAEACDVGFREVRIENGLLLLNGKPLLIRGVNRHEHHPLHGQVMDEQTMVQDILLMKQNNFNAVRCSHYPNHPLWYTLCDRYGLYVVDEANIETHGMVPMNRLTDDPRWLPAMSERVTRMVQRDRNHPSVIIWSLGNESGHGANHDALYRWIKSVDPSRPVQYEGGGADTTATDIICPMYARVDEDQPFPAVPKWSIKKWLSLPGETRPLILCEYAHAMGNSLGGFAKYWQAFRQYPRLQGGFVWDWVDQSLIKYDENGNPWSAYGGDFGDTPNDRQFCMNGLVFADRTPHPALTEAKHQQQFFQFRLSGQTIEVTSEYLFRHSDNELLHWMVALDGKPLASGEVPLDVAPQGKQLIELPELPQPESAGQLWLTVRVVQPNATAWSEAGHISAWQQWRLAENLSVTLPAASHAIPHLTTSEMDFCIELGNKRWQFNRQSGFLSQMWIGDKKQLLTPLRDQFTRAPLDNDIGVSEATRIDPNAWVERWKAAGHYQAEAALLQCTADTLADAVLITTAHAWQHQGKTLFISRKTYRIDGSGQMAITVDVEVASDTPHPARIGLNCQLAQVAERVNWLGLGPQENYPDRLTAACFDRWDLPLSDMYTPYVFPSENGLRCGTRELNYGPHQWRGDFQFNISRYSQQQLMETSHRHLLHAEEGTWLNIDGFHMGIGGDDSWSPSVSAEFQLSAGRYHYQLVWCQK

[19] = reduction of Shn3 3'UTR-driven luciferase in osteoblasts – cell-based, Clone20 osteoblasts, firefly luciferase, cherry-picked, dose response (AID 624132); type: functional;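 also: firefly luciferase luminescence from reporter carrying the Shn3 3'UTR in osteoblasts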
[20] = target: T2, Type-1 angiotensin II receptor (Homo sapiens, UniProt P30556); assay: antagonism of angiotensin II type 1 receptor – cell-based, uHTS hits, selectivity assay for APJ receptor antagonist project, dose response (AID 463214); type: functional;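 also: antagonist potency against angiotensin II stimulated AT1 response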
T2 sequence (P30556 whole entry): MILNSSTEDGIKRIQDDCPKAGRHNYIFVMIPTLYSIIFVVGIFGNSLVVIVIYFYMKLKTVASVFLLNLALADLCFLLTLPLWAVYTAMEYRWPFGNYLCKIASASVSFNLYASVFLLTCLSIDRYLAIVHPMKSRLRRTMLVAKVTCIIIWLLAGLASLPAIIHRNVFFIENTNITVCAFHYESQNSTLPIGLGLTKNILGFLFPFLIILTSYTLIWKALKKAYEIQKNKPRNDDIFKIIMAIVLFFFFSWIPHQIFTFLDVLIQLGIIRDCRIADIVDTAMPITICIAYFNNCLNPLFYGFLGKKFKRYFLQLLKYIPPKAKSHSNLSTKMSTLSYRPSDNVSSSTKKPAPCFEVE

[21] = loss of viability in HepG2 cells – cell-based, CellTiter-Glo, cherry-picked, cytotoxicity control for Shn3 inhibitor project, dose response (AID 624134); type: functional
[22] = blockade of melanocortin 4 receptor signaling – cell-based, plate reader, cherry pick, counter-screen for LGR2 antagonist project, dose response (AID 743444); type: functional;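 also: transfected HEK 293 cells stimulated with alpha-MSH peptide; potency of inhibitors of the alpha-MSH evoked signal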
[23] = non-specific 3'UTR reporter inhibition in Clone20-Shn3RL – cell-based, Renilla luciferase, cherry-picked, counter-screen for Shn3 inhibitor project, dose response (AID 624133); type: functional
[24] = target: T3, Alkaline phosphatase, tissue-nonspecific isozyme (Homo sapiens, UniProt P05186)
T3 sequence (P05186 whole entry): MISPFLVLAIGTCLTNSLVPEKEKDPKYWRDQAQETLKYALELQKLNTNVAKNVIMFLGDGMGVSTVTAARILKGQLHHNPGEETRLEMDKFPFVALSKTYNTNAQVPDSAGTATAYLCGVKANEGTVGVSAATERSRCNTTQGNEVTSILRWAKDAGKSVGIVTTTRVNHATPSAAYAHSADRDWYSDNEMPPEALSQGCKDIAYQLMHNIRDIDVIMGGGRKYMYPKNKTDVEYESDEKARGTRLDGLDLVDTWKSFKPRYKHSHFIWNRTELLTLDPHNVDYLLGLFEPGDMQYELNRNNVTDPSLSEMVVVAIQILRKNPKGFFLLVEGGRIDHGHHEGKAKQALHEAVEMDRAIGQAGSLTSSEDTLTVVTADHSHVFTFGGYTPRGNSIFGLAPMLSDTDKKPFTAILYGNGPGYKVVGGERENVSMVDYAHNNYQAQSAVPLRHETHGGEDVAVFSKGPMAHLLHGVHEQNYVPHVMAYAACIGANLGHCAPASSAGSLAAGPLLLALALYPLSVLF

[25] = target: T4, Aryl hydrocarbon receptor (Homo sapiens, UniProt P35869); assay: Luminescence-based cell-based high throughput dose response assay for activators of the Aryl Hydrocarbon Receptor (AHR). [Related pubchem assays: 2796 (Primary screen (AHR activators in singlicate)), 2845 (Confirmation screen (AHR activators in triplicate)), 434939 (Counterscreen (PXR activators in triplicate)), 2804 (Summary (AHR activators))]; type: ADME
T4 sequence (P35869 whole entry): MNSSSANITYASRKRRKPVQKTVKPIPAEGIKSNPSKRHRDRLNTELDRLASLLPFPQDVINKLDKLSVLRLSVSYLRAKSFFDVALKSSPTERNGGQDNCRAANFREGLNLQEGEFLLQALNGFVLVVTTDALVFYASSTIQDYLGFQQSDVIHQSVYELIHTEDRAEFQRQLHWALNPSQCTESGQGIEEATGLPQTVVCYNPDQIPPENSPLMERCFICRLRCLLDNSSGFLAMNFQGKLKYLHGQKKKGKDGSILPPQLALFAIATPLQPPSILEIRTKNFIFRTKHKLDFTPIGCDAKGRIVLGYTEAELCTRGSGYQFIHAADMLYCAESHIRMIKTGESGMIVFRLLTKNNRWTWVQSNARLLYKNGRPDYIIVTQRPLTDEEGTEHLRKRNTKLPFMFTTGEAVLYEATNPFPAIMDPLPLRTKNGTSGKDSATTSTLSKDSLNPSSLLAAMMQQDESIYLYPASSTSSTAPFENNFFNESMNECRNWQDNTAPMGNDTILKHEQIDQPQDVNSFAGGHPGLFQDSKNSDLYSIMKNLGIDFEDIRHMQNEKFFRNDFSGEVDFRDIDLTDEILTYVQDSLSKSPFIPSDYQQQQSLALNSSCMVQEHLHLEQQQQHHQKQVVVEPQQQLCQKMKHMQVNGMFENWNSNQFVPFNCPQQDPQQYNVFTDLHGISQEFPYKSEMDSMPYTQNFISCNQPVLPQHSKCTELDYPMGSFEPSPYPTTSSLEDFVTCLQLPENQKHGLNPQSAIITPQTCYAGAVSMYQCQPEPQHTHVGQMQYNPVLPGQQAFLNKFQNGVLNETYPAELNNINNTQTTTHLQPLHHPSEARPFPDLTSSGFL

[26] = target: Peroxisome proliferator-activated receptor gamma/Nuclear receptor coactivator 1 (Homo sapiens, UniProt P37231); type: functional;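 also: agonist potency as compounds enhance coactivator SRC-1 recruitment to PPARgamma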
Peroxisome proliferator-activated receptor gamma/Nuclear receptor coactivator 1, sequence (P37231 whole entry): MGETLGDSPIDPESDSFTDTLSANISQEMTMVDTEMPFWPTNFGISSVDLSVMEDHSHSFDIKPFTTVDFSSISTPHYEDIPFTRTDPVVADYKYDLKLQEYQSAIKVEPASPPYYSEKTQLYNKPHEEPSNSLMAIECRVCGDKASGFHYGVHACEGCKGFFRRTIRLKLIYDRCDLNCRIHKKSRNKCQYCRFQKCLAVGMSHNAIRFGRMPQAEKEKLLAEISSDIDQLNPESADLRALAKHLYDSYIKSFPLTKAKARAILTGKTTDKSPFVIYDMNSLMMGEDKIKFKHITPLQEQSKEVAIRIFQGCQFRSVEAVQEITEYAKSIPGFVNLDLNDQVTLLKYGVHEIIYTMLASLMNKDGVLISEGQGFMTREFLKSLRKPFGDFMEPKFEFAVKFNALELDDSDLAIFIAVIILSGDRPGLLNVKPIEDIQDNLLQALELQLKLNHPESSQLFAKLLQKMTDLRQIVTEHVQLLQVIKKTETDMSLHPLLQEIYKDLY
Peroxisome proliferator-activated receptor gamma/Nuclear receptor coactivator 1, sequence (Q15788 whole entry, further chain): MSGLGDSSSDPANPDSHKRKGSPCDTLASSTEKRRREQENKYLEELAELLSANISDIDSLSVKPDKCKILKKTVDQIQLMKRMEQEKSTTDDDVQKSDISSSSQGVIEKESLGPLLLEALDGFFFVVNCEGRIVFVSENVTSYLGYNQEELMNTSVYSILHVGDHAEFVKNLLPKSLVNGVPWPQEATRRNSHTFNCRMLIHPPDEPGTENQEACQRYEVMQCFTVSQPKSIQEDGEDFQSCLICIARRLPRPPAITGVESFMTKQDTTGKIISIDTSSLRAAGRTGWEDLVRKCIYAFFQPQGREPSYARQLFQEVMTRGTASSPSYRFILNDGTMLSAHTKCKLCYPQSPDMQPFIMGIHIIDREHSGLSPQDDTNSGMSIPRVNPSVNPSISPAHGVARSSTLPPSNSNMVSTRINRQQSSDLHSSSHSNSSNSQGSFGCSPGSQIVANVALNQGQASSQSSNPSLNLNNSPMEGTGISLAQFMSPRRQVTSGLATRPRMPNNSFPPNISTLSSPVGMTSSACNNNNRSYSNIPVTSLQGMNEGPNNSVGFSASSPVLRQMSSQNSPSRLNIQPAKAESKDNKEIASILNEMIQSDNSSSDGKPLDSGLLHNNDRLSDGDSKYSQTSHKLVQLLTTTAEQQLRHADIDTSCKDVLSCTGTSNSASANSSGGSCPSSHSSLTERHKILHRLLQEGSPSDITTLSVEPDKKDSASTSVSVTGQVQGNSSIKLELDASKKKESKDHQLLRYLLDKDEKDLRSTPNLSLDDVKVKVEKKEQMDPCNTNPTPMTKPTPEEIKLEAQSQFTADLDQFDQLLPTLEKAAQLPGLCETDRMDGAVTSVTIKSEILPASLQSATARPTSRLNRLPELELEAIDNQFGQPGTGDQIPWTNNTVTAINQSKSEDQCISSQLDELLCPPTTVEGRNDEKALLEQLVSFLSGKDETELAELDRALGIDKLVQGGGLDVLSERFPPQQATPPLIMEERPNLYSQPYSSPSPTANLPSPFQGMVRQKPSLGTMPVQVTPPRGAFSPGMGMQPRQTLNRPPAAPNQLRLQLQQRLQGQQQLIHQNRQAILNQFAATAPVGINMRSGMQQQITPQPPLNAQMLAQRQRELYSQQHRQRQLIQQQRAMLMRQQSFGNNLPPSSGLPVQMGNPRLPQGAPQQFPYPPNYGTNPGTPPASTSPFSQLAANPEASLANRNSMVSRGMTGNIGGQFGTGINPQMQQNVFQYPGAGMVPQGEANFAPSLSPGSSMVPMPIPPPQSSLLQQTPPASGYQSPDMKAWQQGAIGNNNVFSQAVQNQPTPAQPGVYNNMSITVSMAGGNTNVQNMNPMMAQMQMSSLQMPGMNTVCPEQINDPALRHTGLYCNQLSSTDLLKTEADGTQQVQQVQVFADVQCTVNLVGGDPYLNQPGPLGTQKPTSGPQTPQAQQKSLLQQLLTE

[27] = target: Peroxisome proliferator-activated receptor gamma/Nuclear receptor coactivator 2 (Homo sapiens, UniProt P37231); type: functional;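 also: agonist potency for raising coactivator recruitment to the receptor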
Peroxisome proliferator-activated receptor gamma/Nuclear receptor coactivator 2, sequence (P37231 whole entry): as the sequence (P37231 whole entry) above
Peroxisome proliferator-activated receptor gamma/Nuclear receptor coactivator 2, sequence (Q15596 whole entry, further chain): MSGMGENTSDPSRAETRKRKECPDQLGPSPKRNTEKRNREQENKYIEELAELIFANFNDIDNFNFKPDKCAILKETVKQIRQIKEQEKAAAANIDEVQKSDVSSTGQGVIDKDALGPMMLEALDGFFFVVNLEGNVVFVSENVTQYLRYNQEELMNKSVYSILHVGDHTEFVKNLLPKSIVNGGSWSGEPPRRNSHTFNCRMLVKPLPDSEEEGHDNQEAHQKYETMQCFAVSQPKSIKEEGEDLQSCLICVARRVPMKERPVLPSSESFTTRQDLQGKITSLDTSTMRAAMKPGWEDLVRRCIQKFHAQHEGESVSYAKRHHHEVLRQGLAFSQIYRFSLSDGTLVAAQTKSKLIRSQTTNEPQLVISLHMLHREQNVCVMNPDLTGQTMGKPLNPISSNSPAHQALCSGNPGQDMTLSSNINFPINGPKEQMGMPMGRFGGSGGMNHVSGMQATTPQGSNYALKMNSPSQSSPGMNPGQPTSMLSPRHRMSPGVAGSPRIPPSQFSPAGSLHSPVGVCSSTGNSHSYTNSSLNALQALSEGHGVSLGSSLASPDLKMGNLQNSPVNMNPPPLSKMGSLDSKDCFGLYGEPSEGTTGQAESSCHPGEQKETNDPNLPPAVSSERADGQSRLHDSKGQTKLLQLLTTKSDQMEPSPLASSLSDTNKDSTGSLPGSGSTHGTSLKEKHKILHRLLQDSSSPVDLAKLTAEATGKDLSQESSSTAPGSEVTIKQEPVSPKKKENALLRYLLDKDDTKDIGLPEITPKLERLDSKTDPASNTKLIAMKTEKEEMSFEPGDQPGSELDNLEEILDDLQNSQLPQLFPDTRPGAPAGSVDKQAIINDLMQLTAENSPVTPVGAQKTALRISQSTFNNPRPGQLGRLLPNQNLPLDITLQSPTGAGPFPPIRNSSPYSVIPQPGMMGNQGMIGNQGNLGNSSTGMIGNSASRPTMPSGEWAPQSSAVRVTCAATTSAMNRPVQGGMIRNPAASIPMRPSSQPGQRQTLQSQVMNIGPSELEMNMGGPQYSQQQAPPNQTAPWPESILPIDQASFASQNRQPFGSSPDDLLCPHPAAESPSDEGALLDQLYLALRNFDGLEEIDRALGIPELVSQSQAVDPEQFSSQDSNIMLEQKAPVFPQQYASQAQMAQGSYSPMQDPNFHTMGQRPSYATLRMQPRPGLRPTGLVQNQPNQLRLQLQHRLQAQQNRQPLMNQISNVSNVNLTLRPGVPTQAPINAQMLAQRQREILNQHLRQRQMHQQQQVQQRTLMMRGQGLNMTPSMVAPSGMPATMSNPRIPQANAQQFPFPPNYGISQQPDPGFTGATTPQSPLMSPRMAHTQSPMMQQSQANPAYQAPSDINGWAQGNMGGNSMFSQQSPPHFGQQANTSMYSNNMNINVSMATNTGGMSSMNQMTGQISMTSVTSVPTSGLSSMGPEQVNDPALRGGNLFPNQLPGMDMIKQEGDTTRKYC

[28] = target: Peroxisome proliferator-activated receptor gamma/Nuclear receptor coactivator 3 (Homo sapiens, UniProt P37231); type: functional;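 also: agonist potency for raising coactivator recruitment to the receptor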
[29] = target: Voltage-gated N-type calcium channel alpha-1B subunit/Amyloid beta A4 precursor protein-binding family A member 1 (Homo sapiens, UniProt Q00975+Q02410); assay: disruptors of Mint-PDZ/N-type channel peptide interaction – biochemical, HTRF, set 2, SAR follow-up (AID 434980); type: functional

## Cc1ccc(-n2ncc(C(=O)Nc3cc(Cl)cc(Cl)c3)c2C2CCNCC2)cc1C
[1]
  EC50: 2.02 µM (active)
[2]
  IC50: 5.23 µM (active)
[3]
  EC50: 5.28 µM (active)
BJ [4]
  EC50: 6.96 µM (inconclusive)
[5]
  EC50: > 30 µM (not active)
[6]
  EC50: 7.75 µM (active)
BJ [7]
  EC50: 3.72 µM (active)
[8]
  EC50: > 120 µM (not active)
BJ [9]
  EC50: 8.6 µM (inconclusive)
[10]
  EC50: 9.16 µM (active)

## CC(NC(=O)CCCCCCN1C(=O)c2ccccc2C1=O)c1ccc2c(c1)CCCC2 (configuration not stated)
[11]
  EC50: > 120 µM (not active)

## O=[N+]([O-])c1ccc(S(=O)(=O)c2ccccc2)nc1
[1]
  EC50: 1.89 µM (active)
[12]
  AC50: 8.59 µM (active)
[2]
  IC50: 3.48 µM (active)
[13]
  EC50: 5.64 µM (active)
[14]
  AC50: 8.17 µM (active)
[5]
  EC50: 2.5 µM (active)
INS1
  AC50: 6.73 µM (active)
[15]
  CC50: 8.09 µM (active)
[16]
  IC50: 2.65 µM (active)
[17]
  AC50: 3.97 µM (active)
[18]
  AC50: 6.81 µM (active)
Beta-galactosidase
  EC50: > 40 µM (inactive)
[19]
  AC50: 1.74 µM (active)
[20]
  IC50: 13.1 µM (active)
[21]
  AC50: 16.2 µM (active)
[22]
  AC50: 4.77 µM (active)
[23]
  AC50: 3.96 µM (active)

## O=C(COC(=O)C1CC(=O)N(Cc2ccccc2)C1)Nc1ccc(Cl)cc1F (configuration not stated)
[24]
  EC50: > 100 µM (not active)

## CCOc1ccc(/C=N/n2cc(-c3ccccc3)nc2S)cc1
[1]
  EC50: 2.35 µM (active)
[25]
  EC50: 4.76 µM (active)
[26]
  EC50: > 79.4 µM (not active)
[27]
  EC50: > 79.4 µM (not active)
[5]
  EC50: > 60 µM (not active)
[28]
  EC50: > 79.4 µM (not active)

## O=C(N/N=C/c1ccsc1)c1cc2ccccc2o1
[11]
  EC50: > 120 µM (not active)

## O=C(c1cc(-c2ccco2)nc2ccccc12)N1CCC(CO)CC1
[29]
  IC50: > 56.8 µM (inactive)

— ChEMBL document CHEMBL1201862, “PubChem BioAssay data set” (2004)
